Each block holds one compound with its values, some of them ahead of it. Calls of active or inactive are those of the source. The rule behind the calls is not given here.
Experiments:
[1] = Drug metabolism in C57BL/6 naive mouse blood assessed as release of gemcitabine metabolite at 10 mg/kg, ip measured after 0.5 hrs by LC-MS/MS analysis; type: ADME, organism-based; details: in vivo
[2] = Chemostability of the compound in acetate buffer at pH 5.2 measured upto 48 hrs by LC-MS analysis; type: physicochemical; details: pH 5.2, 48 h
[3] = Stability of the compound in DMEM-F12 medium measured for 70 hrs by LC-MS/MS analysis; type: physicochemical
[4] = Stability of the compound in human plasma at 1 ug/ml measured for 4 hrs by LC-MS/MS analysis; type: ADME, cell-free; details: at 1 µg/mL
[5] = Stability of the compound in human A549 cells assessed as parent compound concentration at 10 uM measured per 2 x 10^6 cells after 4 hrs by LC-MS/MS analysis; type: ADME, cell-based; details: a549, 4 h
[6] = Drug metabolism in human A549 cells assessed as 2',2'-difluorodeoxyuridine metabolite concentration at 10 uM measured per 2X10^5 cells after 24 hrs by LC-MS/MS analysis; type: ADME, cell-based; details: a549, 24 h
[7] = Drug metabolism in human A549 cells assessed as gemcitabine metabolite formation at 10 uM measured per 2 x 10^5 cells after 24 hrs by LC-MS/MS analysis; type: ADME, cell-based; details: a549, 24 h
[8] = Drug uptake in human A549 cells at 20 uM in presence of alphavbeta3 integrin […], c(RGDyK) incubated for 2 hrs by LC-MS analysis; type: cell-based; details: a549, 2 h
[9] = Drug uptake in human A549 cells at 20 uM in presence of alphavbeta3 integrin […]-cilengitide incubated for 2 hrs by LC-MS analysis; type: cell-based; details: a549, 2 h
[10] = test system: WM 266-4; assay: Inhibition of cell invasiveness in human WM266-4 cells at 10 uM measured after 4 hrs by DiffQuick staining based light microscopic analysis; type: functional
[11] = test system: WM 266-4; assay: Induction of apoptosis in human WM266-4 cells assessed as viable cells at 1 uM measured after 72 hrs by Annexin V-FITC and PI staining based flow cytometry analysis (reference value: 98.2%); type: functional; details: read-out: Activity
[12] = test system: WM 266-4; assay: Induction of apoptosis in human WM266-4 cells assessed as early apoptotic cells at 1 uM measured after 72 hrs by Annexin V-FITC and PI staining based flow cytometry analysis (reference value: 0.2%); type: functional
[13] = test system: WM 266-4; assay: Induction of apoptosis in human WM266-4 cells assessed as late apoptotic cells at 1 uM measured after 72 hrs by Annexin V-FITC and PI staining based flow cytometry analysis (reference value: 0.5%); type: functional
[14] = test system: WM 266-4; assay: Induction of apoptosis in human WM266-4 cells assessed as necrotic cells at 1 uM measured after 72 hrs by Annexin V-FITC and PI staining based flow cytometry analysis (reference value: […]); type: functional
[15] = test system: WM 266-4; assay: Inhibition of clonogenicity in human WM266-4 cells assessed as proportion of cell colonies at 1 uM measured after 72 hrs relative to control; type: functional; parameters: scale not given: the % may be the effect or the level left
[16] = test system: WM 266-4; assay: Inhibition of cell growth in human WM266-4 cells measured after 24 hrs; type: functional, cell-based; details: WM 266-4, 24 h
[17] = test system: A549; assay: Antiproliferative activity against human A549 cells assessed as inhibition of cell growth measured after 72 hrs by MTT assay; type: functional, cell-based; details: A549, 72 h
[18] = Drug uptake in C57BL/6 naive mouse blood at 10 mg/kg, ip measured after 0.25 hrs by LC-MS/MS analysis; type: ADME, organism-based; details: C57BL/6, mouse, whole blood, read-out: Drug uptake
[19] = Drug uptake in C57BL/6 naive mouse blood at 10 mg/kg, ip measured after 0.5 hrs by LC-MS/MS analysis; type: ADME, organism-based; details: C57BL/6, mouse, whole blood, read-out: Drug uptake
[20] = Drug uptake in C57BL/6 naive mouse blood at 10 mg/kg, ip measured after 1 hr by LC-MS/MS analysis; type: ADME, organism-based; details: C57BL/6, mouse, whole blood, read-out: Drug uptake
[21] = Drug uptake in C57BL/6 naive mouse blood at 10 mg/kg, ip measured after 2 hrs by LC-MS/MS analysis; type: ADME, organism-based; details: C57BL/6, mouse, whole blood, read-out: Drug uptake
[22] = Drug uptake in C57BL/6 naive mouse blood at 10 mg/kg, ip measured after 4 hrs by LC-MS/MS analysis; type: ADME, organism-based; details: C57BL/6, mouse, whole blood, read-out: Drug uptake
[23] = Drug uptake in C57BL/6 naive mouse blood at 10 mg/kg, ip measured after 6 hrs by LC-MS/MS analysis; type: ADME, organism-based; details: C57BL/6, mouse, whole blood, read-out: Drug uptake
[24] = Drug uptake in C57BL/6 naive mouse blood at 10 mg/kg, ip measured after 8 hrs by LC-MS/MS analysis; type: ADME, organism-based; details: C57BL/6, mouse, whole blood, read-out: Drug uptake
[25] = Drug uptake in C57BL/6 naive mouse blood at 10 mg/kg, ip measured after 24 hrs by LC-MS/MS analysis; type: ADME, organism-based; details: C57BL/6, mouse, whole blood, read-out: Drug uptake
[26] = Drug metabolism in C57BL/6 naive mouse blood assessed as release of gemcitabine metabolite at 10 mg/kg, ip measured after 0.25 hrs by LC-MS/MS analysis; type: ADME, organism-based; details: in vivo
[27] = Drug metabolism in C57BL/6 naive mouse blood assessed as release of gemcitabine metabolite at 10 mg/kg, ip measured after 1 hr by LC-MS/MS analysis; type: ADME, organism-based; details: in vivo
[28] = Drug metabolism in C57BL/6 naive mouse blood assessed as release of gemcitabine metabolite at 10 mg/kg, ip measured after 2 hrs by LC-MS/MS analysis; type: ADME, organism-based; details: in vivo
[29] = Drug metabolism in C57BL/6 naive mouse blood assessed as release of gemcitabine metabolite at 10 mg/kg, ip measured after 4 hrs by LC-MS/MS analysis; type: ADME, organism-based; details: in vivo
[30] = Drug metabolism in C57BL/6 naive mouse blood assessed as release of gemcitabine metabolite at 10 mg/kg, ip measured after 6 hrs by LC-MS/MS analysis; type: ADME, organism-based; details: in vivo
[31] = Drug metabolism in C57BL/6 naive mouse blood assessed as release of gemcitabine metabolite at 10 mg/kg, ip measured after 8 hrs by LC-MS/MS analysis; type: ADME, organism-based; details: in vivo
[32] = Drug metabolism in C57BL/6 naive mouse blood assessed as release of gemcitabine metabolite at 10 mg/kg, ip measured after 24 hrs by LC-MS/MS analysis; type: ADME, organism-based; details: in vivo
[33] = Stability of the compound in C57BL/6 naive mouse blood at 10 mg/kg, ip measured for 1 hr by LC-MS/MS analysis; type: ADME, organism-based; details: in vivo
[34] = Chemostability of the compound in phosphate buffer buffer at pH 7.4 measured upto 48 hrs by LC-MS analysis; type: physicochemical; details: pH 7.4, 48 h
[35] = Chemostability of the compound in phosphate buffer assessed as compound hydrolysis at pH 7.4 measured after 7 hrs by LC-MS analysis; type: physicochemical; details: pH 7.4, 7 h
[36] = Chemostability of the compound in phosphate buffer assessed as residual parent compound concentration at pH 7.4 measured after 24 hrs by LC-MS analysis; type: physicochemical; details: read-out: Activity
[37] = Drug metabolism in human plasma assessed as gemcitabine release at 1 ug/ml by LC-MS/MS analysis; type: ADME, cell-free; details: dose 1 µg/ml
[38] = Drug metabolism in human plasma assessed as release of 2',2'-difluorodeoxyuridine metabolite at 1 ug/ml by LC-MS/MS analysis; type: ADME, cell-free; details: dose 1 µg/ml

Drug metabolism [1]: 33 nM
Stability [2]: Stable
Stability [3]: Stable
Stability [4]: Stable
Drug uptake [5]: 5 ng
Drug metabolism [6]: 4 ng
Drug metabolism [7]: < 0.05 ng
Drug uptake [8]: Not Active
Drug uptake [9]: Not Active
IC50 [17]: 678 nM
concentration at 0.25 h [18]: 6660 nM
concentration at 0.5 h [19]: 8470 nM
concentration at 1 h [20]: 3320 nM
concentration at 2 h [21]: 547 nM
concentration at 4 h [22]: 38 nM
concentration at 6 h [23]: 168 nM
concentration at 8 h [24]: 11 nM
concentration at 24 h [25]: 14 nM
Drug metabolism [26]: 748 nM
Drug metabolism [27]: 46 nM
Drug metabolism [28]: 6 nM
Drug metabolism [29]: 7 nM
Drug metabolism [30]: 11 nM
Drug metabolism [31]: 40 nM
Drug metabolism [32]: 3 nM
Stability [33]: Stable
Stability [34]: Stable
SMILES: N=C(N)NCCC[C@@H]1NC(=O)[C@H](CCCCNC(=O)OC[C@H]2O[C@@H](n3ccc(N)nc3=O)C(F)(F)[C@@H]2O)NC(=O)[C@@H](Cc2ccc(O)cc2)NC(=O)[C@H](CC(=O)O)NC(=O)CNC1=O
inhibition [10]: Active
viability at 1 µM [11]: 72.3%
Activity [12]: 1.3%
Activity [13]: 4.8%
Activity [14]: 21.7%
Activity [15]: 8.3%
IC50 [16]: 57600 nM

IC50 [17]: 18.8 nM
SMILES: Nc1ccn([C@@H]2O[C@H](CO)[C@@H](O)C2(F)F)c(=O)n1 [GEMCITABINE]
viability at 1 µM [11]: 78.3%
Activity [12]: 4.1%
Activity [13]: 5.1%
Activity [14]: 12.4%
Activity [15]: 46.6%
IC50 [16]: 17800 nM

SMILES: N=C(N)NCCC[C@@H]1NC(=O)[C@H](CCCCN)NC(=O)[C@@H](Cc2ccc(O)cc2)NC(=O)[C@H](CC(=O)O)NC(=O)CNC1=O
inhibition [10]: Active

Stability [2]: Stable
Stability [35]: Unstable
remaining at 24 h [36]: 85%
Drug metabolism [37]: Metabolite_Detected
Drug metabolism [38]: Metabolite_Detected
IC50 [17]: 30.6 nM
SMILES: N=C(N)NCCC[C@@H]1NC(=O)[C@H](CCCCNC(=O)OCCSSCCOC(=O)OC[C@H]2O[C@@H](n3ccc(N)nc3=O)C(F)(F)[C@@H]2O)NC(=O)[C@@H](Cc2ccc(O)cc2)NC(=O)[C@H](CC(=O)O)NC(=O)CNC1=O
inhibition [10]: Active
viability at 1 µM [11]: 66.4%
Activity [12]: 0.3%
Activity [13]: 2.2%
Activity [14]: 31.1%
Activity [15]: 4.9%
IC50 [16]: > 100000 nM

From ChEMBL document CHEMBL5046252, “Integrin-Mediated Targeted Cancer Therapy Using c(RGDyK)-Based Conjugates of Gemcitabine” (J Med Chem, 2022)
